Where two headings read alike, the source gives them in different places.
What was measured:
[1] = Flow Induced Dispersion Analysis (FIDA) equilibrium binding constant with βCD; settings: complex with βCD, 67 mM phosphate buffer pH 7.4, 25° C., ±standard deviation
Description: The sample volume introduced into the capillary in these experiments corresponds to 9 nL. […] The peak shape may be fitted to a Gaussian peak shape (described in the examples); in this way the temporal peak variance σ^2 can be estimated.
[formula] where σA^2 is the observed variance obtained from a Gaussian fit in the absence of an interacting analyte and σAL^2 is the variance corresponding to the complex AL. […] Corrections due to sample injection and detector variances may be introduced, but as they are small and constant under the present conditions they are neglected.
[formula] where [L] is the concentration of free analyte. […]
In a series of experiments the concentration of βCD in the background electrolyte was varied and the peak variances determined.
βCD, α-naphthol and naproxen was obtained form Sigma-Aldrich. […] The amount of water present in βCD was determined by gravimetric analysis upon drying to constant weight in vacuo at ˜60° C. […]

[2] = Diffusion coefficients from FIDA peak variance (eq 2, capillary radius 25 μm); type: physicochemical; settings: 67 mM phosphate buffer pH 7.4, 25° C., calculated using eq 2, capillary radius 25 μm; for Diffusion coefficient of the complex DAL: complex with βCD
Text: According to Taylor-Aris theory the temporal peak variance is related to ligand (affinity probe) diffusivity (13,14). Under optimal conditions for a pressure driven flow in a cylindrical capillary the peak variance is inversely proportional to the diffusion coefficient, D, according to (15): [formula] where Rc is the radius of the capillary tube, and tR is the peak appearance time. In the presence of the analyte βCD, the observed variance can be attributed to α-naphthol and the complex between α-naphthol and βCD. We shall assume that the observed variance is a weighted average depending on the fraction of free α-naphthol, x. This assumption is valid when the complexation kinetics is fast compared to the timescale of the experiment (16). […] The experimental points are found to be well described by the model and the estimated binding constants are in good agreement with literature data considering that other methods and different conditions were used (table 1). In table 1, the diffusion coefficients of the analytes and complexes calculated using eq 2 and assuming a capillary radius of 25 μm are also listed. […] Samples were run in triplicate.

[3] = ACE; complex with βCD; 67 mM phosphate buffer pH 7.4; ±standard deviation
Description: Flow induced dispersion and capillary electrophoresis experiments were carried out using an Agilent ^3DCE instrument (Agilent Technologies, Waldbronn, Germany). Uncoated fused silica capillaries of 48.5 cm total length (50 μm i.d., 360 μm o.d.) and 40.5 cm to the detection window were obtained from Polymicro Technologies (Phoenix, Ariz., USA).
New capillaries were conditioned with 1 M NaOH (45 min), Milli-Q water (30 min) and 67 mM phosphate buffer pH 7.4 (30 min). Before a series of experiments the capillary was refreshed by flushing with 1 M NaOH (10 min) and 67 mM phosphate buffer pH 7.4 (10 min). In FIDA, the capillary was preconditioned by flushing the capillary with 0.1 M NaOH (2 min) and run buffer (2 min). The sample was injected by applying a pressure of 50 mbar for 5 sec. Subsequently a pressure of 50 mbar was applied across the capillary to force the sample through it. Finally the sample was detected by UV absorbance at 230 nm. Samples were run in triplicate. The peak variance was obtained by fitting the UV signal to a Gaussian peak shape. The Gaussian in addition to peak variance and peak appearance time the function incorporates a constant A to account for signal height and a constant y0 to account for a possible detector offset.

[4] = literature data (18, 19); cited from earlier work
[5] = complex with βCD; literature data (17); cited from earlier work

Equilibrium binding constant K [3] | SMILES | Equilibrium binding constant K [1] | Diffusion coefficient of the free analyte DA [2] | Diffusion coefficient of the complex DAL [2] | Diffusion coefficient of the free analyte DA [4] | Equilibrium binding constant K [5]
650 (±28)^f M^−1 | COc1ccc2cc([C@H](C)C(=O)O)ccc2c1 [Naproxen, naproxen] | 1050 (±185) M^−1 | 5.6 · 10^−6 cm^2 s^−1 | 2.8 · 10^−6 cm^2 s^−1 | 5.8 · 10^−6g cm^2 s^−1 | 
 | Oc1cccc2ccccc12 [α-Naphthol, α-naphthol] | 2400 (±240) M^−1 | 9.3 · 10^−6 cm^2 s^−1 | 3.3 · 10^−6 cm^2 s^−1 | 9.2 · 10^−6e cm^2 s^−1 | 1250^d M^−1
